In general, pIC50 refers to −log10 of the IC50, conventionally taken in molar units. One may read the CC50 as the concentration that lowers cell viability or growth by half.

Data set [1] in a line: Electrochemical behavior of the compound assessed as oxidation onset potential by cyclic voltammetry analysis relative to normal hydrogen electrode. In kind it is physicochemical.
A short description of data set [2]: Selectivity index, ratio of CC50 for HFF-1 cells to IC50 for intracellular amastigote form of Trypanosoma cruzi Tulahuen expressing Escherichia coli LacZ gene infected in HFF-1 cells. In kind it is toxicity. The conditions noted are these: human, read-out: Selectivity Index.
The subject of a further data set is Trypanosoma cruzi. Description: Antitrypanosomal activity against intracellular amastigote form of Trypanosoma cruzi Tulahuen expressing Escherichia coli LacZ gene infected in HFF-1 cells incubated for 120 hrs by automated microplate reader. It is filed as functional, organism-based. The settings on record: HFF-1, 120 h.
Data set [3] can be described thus: Cytotoxicity against HFF-1 cells incubated for 72 hrs by MTS tetrazolium assay. In kind it is toxicity, cell-based. The settings on record: human. On the technique in general: Tetrazolium dyes change colour on reduction, which living cells bring about.
Data set [4] can be described thus: Electrochemical behavior of the compound assessed as reduction onset potential by cyclic voltammetry analysis relative to normal hydrogen electrode. In kind it is physicochemical.

pIC50: −log10 of the molar value.

Consider `Cc1ccccc1-n1cc(C[Se]c2ccccc2)nn1`, for which the Ep in data set [1] stood at 0.83 V. In data set [2], the selectivity ratio is > 6.5. Further, the pIC50 with Trypanosoma cruzi is 5.01.
In the case of `c1ccc(SCc2cn(-c3ccccc3)nn2)cc1`, the Ep in data set [1] stood at 1.06 V. Besides, the pIC50 with Trypanosoma cruzi is 4.67.
Take `COc1ccc(-n2cc(C[Se]c3ccccc3)nn2)cc1`: the CC50 at 72 h in data set [3] is > 64 µM. Moreover, the Ep in data set [1] came out at 0.75 V. In addition, the selectivity ratio in data set [2] was > 5. This molecule gave a pIC50 in the data set on Trypanosoma cruzi of 4.90.
In the same order, the values of `Cc1cccc(-n2cc(C[Se]c3ccccc3)nn2)c1` are > 64 µM, 0.84 V, > 7 and 5.04.
`FC(F)(F)c1cccc([Se]Cc2cn(-c3ccccc3)nn2)c1`: the CC50 at 72 h in data set [3] was > 64 µM. Besides, the Ep in data set [1] is 0.97 V; in data set [4], -0.92 V. For the same molecule, the selectivity ratio in data set [2] is > 11.9. In the data set on Trypanosoma cruzi, the pIC50 was 5.27.
Turning to `Cc1cc(C)c([Se]Cc2cn(-c3ccccc3)nn2)c(C)c1`, in data set [1], the Ep is 1.03 V. The molecule also showed a pIC50 in the data set with Trypanosoma cruzi of 4.41.
The molecule `Cc1ccc([Se]Cc2cn(-c3ccccc3)nn2)cc1` displayed a cytotoxic concentration (CC50) at 72 h in data set [3] of 56.1 µM. Besides, the Ep in data set [1] turned out to be 0.81 V. For the same molecule, the selectivity ratio in data set [2] was found to be 8.4. In the data set with Trypanosoma cruzi, this molecule had a pIC50 of 5.13.
For `c1ccc(-n2cc(C[Se]c3cccc4ccccc34)nn2)cc1`, the 50% cytotoxic concentration (CC50) at 72 h in data set [3] was > 64 µM. The Ep is 0.96 V in data set [1] and -0.82 V in data set [4]. The selectivity ratio in data set [2] was > 20.6. This molecule also had a pIC50 with Trypanosoma cruzi of 5.51.
For the molecule `Clc1ccccc1-n1cc(C[Se]c2ccccc2)nn1`, the CC50 at 72 h in data set [3] was > 64 µM. For the same molecule, the Ep in data set [1] worked out at 0.83 V. Also, in data set [2], the selectivity ratio is > 4.2. Besides, the pIC50 in the data set on Trypanosoma cruzi was 4.82.
For `Fc1ccc([Se]Cc2cn(-c3ccccc3)nn2)cc1`, in data set [3], the CC50 at 72 h turned out to be 62.5 µM. Moreover, in data set [1], the Ep was found to be 0.76 V. Further, in data set [2], the selectivity ratio was > 5.5. Besides, the negative logarithm of the IC50 (pIC50) in the data set with Trypanosoma cruzi is 4.94.
Turning to `O=[N+]([O-])c1ccc(-n2cc(C[Se]c3ccccc3)nn2)cc1`, the Ep in data set [1] is listed as 0.9 V; in data set [4] it was -1.11 V. For the same molecule, the pIC50 in the data set on Trypanosoma cruzi was < 4.19.
In data set [3], `c1ccc([Se]Cc2cn(-c3ccccc3)nn2)cc1` displayed a CC50 at 72 h of 48 µM. Also, the Ep in data set [1] is 0.79 V. Moreover, the selectivity ratio in data set [2] was 5.9. This molecule also had a pIC50 in the data set on Trypanosoma cruzi of 5.09.
In the case of `Clc1ccc([Se]Cc2cn(-c3ccccc3)nn2)cc1`, in data set [3], the CC50 at 72 h is > 64 µM. Further, the Ep in data set [1] is on record as 0.84 V. Moreover, the selectivity ratio in data set [2] is 3.3. The pIC50 in the data set on Trypanosoma cruzi was 4.77.
In the same order, the values of `Cc1ccc(-n2cc(C[Se]c3ccccc3)nn2)cc1` are > 64 µM, 0.85 V, > 6.9 and 5.03.
In data set [3], `c1ccc(-n2cc(C[Se]c3cccs3)nn2)cc1` had a CC50 at 72 h of 43.1 µM. Besides, in data set [1], the Ep is reported as 1.22 V. Further, in data set [2], the selectivity ratio is 2.8. The pIC50 with Trypanosoma cruzi is 4.81.
In the same order, the values of `Clc1ccc(-n2cc(C[Se]c3ccccc3)nn2)cc1` are > 64 µM, 0.81 V, > 5.6 and 4.94.
As to `O=C(Cn1ccnc1[N+](=O)[O-])NCc1ccccc1` [BENZNIDAZOLE], the CC50 at 72 h in data set [3] is > 64 µM. Also, in data set [2], the selectivity ratio is > 30.5. The molecule further gave a pIC50 in the data set on Trypanosoma cruzi of 5.68.

The record behind these values is ChEMBL document CHEMBL5352411, “Synthesis and investigation of the trypanocidal potential of novel 1,2,3-triazole-selenide hybrids” (Eur J Med Chem, 2022).
